# Results: patent publication US20050009840A1 (SUGEN, INC., priority 2003, published 2005)
# Molecular target: T1, HGFR (Homo sapiens, UniProt P08581)
# T1 construct: purchased Upstate 14-526
# Experiment: HGFR continuous-coupled spectrophotometric assay
# Type: biochemical
# Settings: at 50 nM; Table 5, library procedure 40; read-out: % inhibition (percent c-MET inhibition)
# T1 sequence (P08581 974-1390 limits assumed): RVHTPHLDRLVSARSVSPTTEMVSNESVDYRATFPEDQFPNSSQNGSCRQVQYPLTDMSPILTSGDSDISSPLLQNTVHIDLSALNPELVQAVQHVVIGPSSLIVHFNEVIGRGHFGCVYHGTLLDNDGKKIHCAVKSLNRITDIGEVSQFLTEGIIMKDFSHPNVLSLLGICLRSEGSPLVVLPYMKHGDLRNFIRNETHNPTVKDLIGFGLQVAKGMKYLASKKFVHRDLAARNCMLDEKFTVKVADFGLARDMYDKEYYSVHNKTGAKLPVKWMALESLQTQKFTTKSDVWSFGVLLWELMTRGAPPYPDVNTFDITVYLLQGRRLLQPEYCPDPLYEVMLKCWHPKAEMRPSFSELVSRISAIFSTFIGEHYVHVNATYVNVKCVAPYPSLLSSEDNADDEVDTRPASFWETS
row,SMILES,inhibition at 0.05 µM [%]
1,CC(Oc1cc(-c2ccc(C(=O)N(C)CC#N)cc2)cnc1N)c1c(Cl)ccc(F)c1Cl [Example L-99],83
2,C[C@H](Oc1cc(-c2ccc(C(=O)NC[C@@H](C)O)cc2)cnc1N)c1c(Cl)ccc(F)c1Cl [Example L-101],79
3,CNC(=O)c1ccc(-c2cnc(N)c(OC(C)c3c(Cl)ccc(F)c3Cl)c2)cc1 [Example L-102],82
4,CC(Oc1cc(-c2ccc(C(=O)N3CCOCC3)cc2)cnc1N)c1c(Cl)ccc(F)c1Cl [Example L-103],91
5,CC(Oc1cc(-c2ccc(C(=O)N(C)CCO)cc2)cnc1N)c1c(Cl)ccc(F)c1Cl [Example L-104],89
6,CC(Oc1cc(-c2ccc(C(=O)NCCO)cc2)cnc1N)c1c(Cl)ccc(F)c1Cl [Example L-106],89
7,CC(=O)N[C@@H]1CCN(C(=O)c2ccc(-c3cnc(N)c(OC(C)c4c(Cl)ccc(F)c4Cl)c3)cc2)C1 (stereo partly drawn) [Example L-107],87
8,CCOCCCNC(=O)c1ccc(-c2cnc(N)c(OC(C)c3c(Cl)ccc(F)c3Cl)c2)cc1 [Example L-108],70
9,CC(Oc1cc(-c2ccc(C(=O)NCCC#N)cc2)cnc1N)c1c(Cl)ccc(F)c1Cl [Example L-109],76
10,CC(C)NC(=O)c1ccc(-c2cnc(N)c(OC(C)c3c(Cl)ccc(F)c3Cl)c2)cc1 [Example L-110],71
11,CC(Oc1cc(-c2ccc(C(=O)NCCc3ccncc3)cc2)cnc1N)c1c(Cl)ccc(F)c1Cl [Example L-111],71
12,CC(Oc1cc(-c2ccc(C(=O)N(C)CCN(C)C)cc2)cnc1N)c1c(Cl)ccc(F)c1Cl [Example L-112],85
13,COc1cc(CNC(=O)c2ccc(-c3cnc(N)c(OC(C)c4c(Cl)ccc(F)c4Cl)c3)cc2)cc(OC)c1 [Example L-113],57
14,CCCCN(C)C(=O)c1ccc(-c2cnc(N)c(OC(C)c3c(Cl)ccc(F)c3Cl)c2)cc1 [Example L-115],63
15,CC(C)OCCCNC(=O)c1ccc(-c2cnc(N)c(OC(C)c3c(Cl)ccc(F)c3Cl)c2)cc1 [Example L-116],62
16,CC(C)CNC(=O)c1ccc(-c2cnc(N)c(OC(C)c3c(Cl)ccc(F)c3Cl)c2)cc1 [Example L-117],60
17,CCN(CCN(C)C)C(=O)c1ccc(-c2cnc(N)c(OC(C)c3c(Cl)ccc(F)c3Cl)c2)cc1 [Example L-118],86
18,CCOCCNC(=O)c1ccc(-c2cnc(N)c(OC(C)c3c(Cl)ccc(F)c3Cl)c2)cc1 [Example L-120],63
19,CC(Oc1cc(-c2ccc(C(=O)NCc3ccc(CN(C)C)cc3)cc2)cnc1N)c1c(Cl)ccc(F)c1Cl [Example L-121],75
20,CC(Oc1cc(-c2ccc(C(=O)NCC3CC3)cc2)cnc1N)c1c(Cl)ccc(F)c1Cl [Example L-122],61
21,CC(Oc1cc(-c2ccc(C(=O)N3CCC(N(C)C)C3)cc2)cnc1N)c1c(Cl)ccc(F)c1Cl [Example L-123],80
22,CC(Oc1cc(-c2ccc(C(=O)N(C)C)cc2)cnc1N)c1c(Cl)ccc(F)c1Cl [Example L-125],77
23,CCN(C)C(=O)c1ccc(-c2cnc(N)c(OC(C)c3c(Cl)ccc(F)c3Cl)c2)cc1 [Example L-126],52

row,SMILES,inhibition at 0.05 µM [%]
1,CCCN1CCN(C(=O)c2ccc(-c3cnc(N)c(OC(C)c4c(Cl)ccc(F)c4Cl)c3)cc2)CC1 [Example L-129],82
2,CC(Oc1cc(-c2ccc(C(=O)N(C)C3CCCC3)cc2)cnc1N)c1c(Cl)ccc(F)c1Cl [Example L-130],60
3,Cc1ccnc(NC(=O)c2ccc(-c3cnc(N)c(OC(C)c4c(Cl)ccc(F)c4Cl)c3)cc2)c1 [Example L-131],61
4,CC(Oc1cc(-c2ccc(C(=O)NCCc3cccnc3)cc2)cnc1N)c1c(Cl)ccc(F)c1Cl [Example L-133],68
5,CC(Oc1cc(-c2ccc(C(=O)N3CCN(C(C)C)CC3)cc2)cnc1N)c1c(Cl)ccc(F)c1Cl [Example L-134],76
6,COCCN1CCN(C(=O)c2ccc(-c3cnc(N)c(OC(C)c4c(Cl)ccc(F)c4Cl)c3)cc2)CC1 [Example L-135],76
7,CC(Oc1cc(-c2ccc(C(=O)N3CCC(C(=O)c4ccccc4)CC3)cc2)cnc1N)c1c(Cl)ccc(F)c1Cl [Example L-136],61
8,CCN(CC)CCN1CCN(C(=O)c2ccc(-c3cnc(N)c(OC(C)c4c(Cl)ccc(F)c4Cl)c3)cc2)CC1 [Example L-137],78
9,CC(CN(C)C)NC(=O)c1ccc(-c2cnc(N)c(OC(C)c3c(Cl)ccc(F)c3Cl)c2)cc1 [Example L-138],83
10,CC1CCC(NC(=O)c2ccc(-c3cnc(N)c(OC(C)c4c(Cl)ccc(F)c4Cl)c3)cc2)CC1 [Example L-139],60
11,CC(C)OCCNC(=O)c1ccc(-c2cnc(N)c(OC(C)c3c(Cl)ccc(F)c3Cl)c2)cc1 [Example L-140],141
12,CC(Oc1cc(-c2ccc(C(=O)N3CCC(CO)CC3)cc2)cnc1N)c1c(Cl)ccc(F)c1Cl [Example L-141],79
13,CC(Oc1cc(-c2ccc(C(=O)N3CCC(CCO)CC3)cc2)cnc1N)c1c(Cl)ccc(F)c1Cl [Example L-142],72
14,CC(C)CN(C)C(=O)c1ccc(-c2cnc(N)c(OC(C)c3c(Cl)ccc(F)c3Cl)c2)cc1 [Example L-143],59
15,Cc1cccc(CN(C)C(=O)c2ccc(-c3cnc(N)c(OC(C)c4c(Cl)ccc(F)c4Cl)c3)cc2)n1 [Example L-144],71
16,COC(=O)CN(C)C(=O)c1ccc(-c2cnc(N)c(OC(C)c3c(Cl)ccc(F)c3Cl)c2)cc1 [Example L-145],77
17,CC(Oc1cc(-c2ccc(C(=O)N3CCN(CC(=O)N(C)C)CC3)cc2)cnc1N)c1c(Cl)ccc(F)c1Cl [Example L-146],89
18,CC(Oc1cc(-c2ccc(C(=O)N3CCN(C4CCN(C)CC4)CC3)cc2)cnc1N)c1c(Cl)ccc(F)c1Cl [Example L-147],96
19,CC(Oc1cc(-c2ccc(C(=O)NCc3ccc(C(F)(F)F)nc3)cc2)cnc1N)c1c(Cl)ccc(F)c1Cl [Example L-148],62
20,CC(Oc1cc(-c2ccc(C(=O)NCCCc3c[nH]nc3O)cc2)cnc1N)c1c(Cl)ccc(F)c1Cl [Example L-150],81
21,CC(Oc1cc(-c2ccc(C(=O)N3CCC(Oc4ccccc4)CC3)cc2)cnc1N)c1c(Cl)ccc(F)c1Cl [Example L-151],58
22,CC(Oc1cc(-c2ccc(C(=O)N3CCS(=O)(=O)CC3)cc2)cnc1N)c1c(Cl)ccc(F)c1Cl [Example L-153],95
23,CC(Oc1cc(-c2ccc(C(=O)NCCN3[C@H](C)CCC[C@@H]3C)cc2)cnc1N)c1c(Cl)ccc(F)c1Cl (stereo partly drawn) [Example L-154],77

row,SMILES,inhibition at 0.05 µM [%]
1,CC(Oc1cc(-c2ccc(C(=O)NCC3(N(C)C)CCOCC3)cc2)cnc1N)c1c(Cl)ccc(F)c1Cl [Example L-155],66
2,CC(Oc1cc(-c2ccc(C(=O)NC3CCOCC3)cc2)cnc1N)c1c(Cl)ccc(F)c1Cl [Example L-156],73
3,C#CCCN1CCN(C(=O)c2ccc(-c3cnc(N)c(OC(C)c4c(Cl)ccc(F)c4Cl)c3)cc2)CC1 [Example L-157],77
4,CC(Oc1cc(-c2ccc(C(=O)Nc3ccc(-n4ccnc4)cc3)cc2)cnc1N)c1c(Cl)ccc(F)c1Cl [Example L-158],63
5,CC(Oc1cc(-c2ccc(C(=O)NCC(c3cccnc3)N(C)C)cc2)cnc1N)c1c(Cl)ccc(F)c1Cl [Example L-159],78
6,CC(Oc1cc(-c2ccc(C(=O)N3CCC(c4cccnc4)C3)cc2)cnc1N)c1c(Cl)ccc(F)c1Cl [Example L-161],79
7,CC(Oc1cc(-c2ccc(C(=O)NCCC3CCOCC3)cc2)cnc1N)c1c(Cl)ccc(F)c1Cl [Example L-162],66
8,CC(Oc1cc(-c2ccc(C(=O)N3CCN(CCS(C)(=O)=O)CC3)cc2)cnc1N)c1c(Cl)ccc(F)c1Cl [Example L-163],83
9,CC(Oc1cc(-c2ccc(C(=O)NC(CO)c3cccnc3)cc2)cnc1N)c1c(Cl)ccc(F)c1Cl [Example L-164],61
10,CC(Oc1cc(-c2ccc(C(=O)N3CCN(CC4CCN(C)CC4)CC3)cc2)cnc1N)c1c(Cl)ccc(F)c1Cl [Example L-165],88
11,CC(Oc1cc(-c2ccc(C(=O)NCCc3nc(-c4ccncc4)c[nH]3)cc2)cnc1N)c1c(Cl)ccc(F)c1Cl [Example L-166],67
12,CCNC(=O)c1ccc(-c2cnc(N)c(OC(C)c3c(Cl)ccc(F)c3Cl)c2)cc1 [Example L-167],66
13,CC(Oc1cc(-c2ccc(C(=O)N3CCNC(=O)C3)cc2)cnc1N)c1c(Cl)ccc(F)c1Cl [Example L-168],90
14,COC1CCN(C(=O)c2ccc(-c3cnc(N)c(OC(C)c4c(Cl)ccc(F)c4Cl)c3)cc2)CC1 [Example L-169],79
15,CC(Oc1cc(-c2ccc(C(=O)NCCCN(C)C3CCCCC3)cc2)cnc1N)c1c(Cl)ccc(F)c1Cl [Example L-170],77
16,CC(Oc1cc(-c2ccc(C(=O)NCCN(C)C3CCCCC3)cc2)cnc1N)c1c(Cl)ccc(F)c1Cl [Example L-171],69
17,CC(Oc1cc(-c2ccc(C(=O)N3CCC(CO)C3)cc2)cnc1N)c1c(Cl)ccc(F)c1Cl [Example L-172],79
18,CC(Oc1cc(-c2ccc(C(=O)NCC3CCOCC3)cc2)cnc1N)c1c(Cl)ccc(F)c1Cl [Example L-173],63
19,C[C@H](Oc1cc(-c2ccc(C(=O)N[C@H]3CC[C@H](CO)CC3)cc2)cnc1N)c1c(Cl)ccc(F)c1Cl [Example L-174],68
20,CC(Oc1cc(-c2ccc(C(=O)N3CCC(COCC4CC4)CC3)cc2)cnc1N)c1c(Cl)ccc(F)c1Cl [Example L-175],60
21,Cc1noc([C@H]2CC[C@H](CNC(=O)c3ccc(-c4cnc(N)c(O[C@@H](C)c5c(Cl)ccc(F)c5Cl)c4)cc3)CC2)n1 [Example L-176],51
